pIC50: −log10 of the molar value. Structures can show the parent of a compound that is named as a salt.
Biological target: Sigma non-opioid intracellular receptor 1 (Cavia porcellus) (UniProt Q60492)
Experiment: In vitro binding affinity at Sigma opioid receptors on guinea pig brain membranes by [3H]-3-PPP displacement.

Sigma non-opioid intracellular receptor 1 (Cavia porcellus), sequence (Q60492 whole entry, looked up): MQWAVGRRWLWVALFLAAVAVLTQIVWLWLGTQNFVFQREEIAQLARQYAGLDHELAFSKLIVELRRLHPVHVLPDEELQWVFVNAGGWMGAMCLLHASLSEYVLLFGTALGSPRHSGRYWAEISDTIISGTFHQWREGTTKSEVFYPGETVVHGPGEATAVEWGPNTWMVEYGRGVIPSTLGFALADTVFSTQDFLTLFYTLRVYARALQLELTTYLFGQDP

Structure (SMILES) | pIC50
CCCC(N)(CCC)Cc1ccc(OC)c(OCCc2ccccc2)c1 [1-(4-Methoxy-3-phenethyloxy-benzyl)-1-propyl-butylamine; compound with (E)-but-2-enedioic acid] | < 6.00
CCCCCC(Cc1ccc(OC)c(OCCc2ccccc2)c1)N(CCC)CCC (centres undefined) [[1-(4-Methoxy-3-phenethyloxy-benzyl)-hexyl]-dipropyl-amine; hydrochloride] | 7.52

Biological target: not listed separately
Experiment: In vitro binding affinity at Sigma opioid receptors on guinea pig brain membranes by [3H]3-PPP displacement.

Structure (SMILES) | pIC50
CCCCCCC(Cc1ccc(OC)c(OCCc2ccccc2)c1)N(CCC)CCC (centres undefined) [[1-(4-Methoxy-3-phenethyloxy-benzyl)-heptyl]-dipropyl-amine] | 6.82
CCCCCC(N)Cc1ccc(OC)c(OCCc2ccccc2)c1 (centres undefined) [1-(4-Methoxy-3-phenethyloxy-benzyl)-hexylamine; hydrochloride] | 6.96
COc1ccc(CC(C)N)cc1OCCc1ccccc1 (centres undefined) [2-(4-Methoxy-3-phenethyloxy-phenyl)-1-methyl-ethylamine; hydrochloride] | < 6.00
CCCNC(C)Cc1ccc(OC)c(OCCc2ccccc2)c1 (centres undefined) [[2-(4-Methoxy-3-phenethyloxy-phenyl)-1-methyl-ethyl]-propyl-amine; hydrochloride] | 8.00
CCC(N)Cc1ccc(OC)c(OCCc2ccccc2)c1 (centres undefined) [1-(4-Methoxy-3-phenethyloxy-benzyl)-propylamine; hydrochloride] | < 6.00
CCCCCC(Cc1ccc(OC)c(OCCc2ccccc2)c1)NCCC (centres undefined) [[1-(4-Methoxy-3-phenethyloxy-benzyl)-hexyl]-propyl-amine; hydrochloride] | 8.82
CCCC(Cc1ccc(OC)c(OCCc2ccccc2)c1)N(CCC)CCC (centres undefined) [[1-(4-Methoxy-3-phenethyloxy-benzyl)-butyl]-dipropyl-amine] | 8.02
CCCCCCCCC(Cc1ccc(OC)c(OCCc2ccccc2)c1)NCCC (centres undefined) [[1-(4-Methoxy-3-phenethyloxy-benzyl)-nonyl]-propyl-amine] | 6.77
CCCCCCC(N)Cc1ccc(OC)c(OCCc2ccccc2)c1 (centres undefined) [1-(4-Methoxy-3-phenethyloxy-benzyl)-heptylamine] | 6.77
CCCCC(N)Cc1ccc(OC)c(OCCc2ccccc2)c1 (centres undefined) [1-(4-Methoxy-3-phenethyloxy-benzyl)-pentylamine] | 6.80
CCCCCCCCC(Cc1ccc(OC)c(OCCc2ccccc2)c1)N(CCC)CCC (centres undefined) [[1-(4-Methoxy-3-phenethyloxy-benzyl)-nonyl]-dipropyl-amine] | < 6.00
CCCCC(Cc1ccc(OC)c(OCCc2ccccc2)c1)N(CCC)CCC (centres undefined) [[1-(4-Methoxy-3-phenethyloxy-benzyl)-pentyl]-dipropyl-amine] | 7.54
CCCCCCC(Cc1ccc(OC)c(OCCc2ccccc2)c1)NCCC (centres undefined) [[1-(4-Methoxy-3-phenethyloxy-benzyl)-heptyl]-propyl-amine] | 8.05
CCCN(CCC)C(C)Cc1ccc(OC)c(OCCc2ccccc2)c1 (centres undefined) [[2-(4-Methoxy-3-phenethyloxy-phenyl)-1-methyl-ethyl]-dipropyl-amine] | 7.92
CCCCCCCC(N)Cc1ccc(OC)c(OCCc2ccccc2)c1 (centres undefined) [1-(4-Methoxy-3-phenethyloxy-benzyl)-octylamine] | 6.38
CCCCCCCCC(N)Cc1ccc(OC)c(OCCc2ccccc2)c1 (centres undefined) [1-(4-Methoxy-3-phenethyloxy-benzyl)-nonylamine] | < 6.00
CCCCCCCC(Cc1ccc(OC)c(OCCc2ccccc2)c1)N(CCC)CCC (centres undefined) [[1-(4-Methoxy-3-phenethyloxy-benzyl)-octyl]-dipropyl-amine] | 6.64
CCCNC(CC)Cc1ccc(OC)c(OCCc2ccccc2)c1 (centres undefined) [[1-(4-Methoxy-3-phenethyloxy-benzyl)-propyl]-propyl-amine] | 8.10

Biological target: Sigma-2 receptor (guinea pig)
Experiment: TIn vitro binding affinity at Sigma opioid receptor type 2 on guinea pig brain membranes by [3H]DTG displacement in the presence of […].

Structure (SMILES) | pIC50
CCCCCC(Cc1ccc(OC)c(OCCc2ccccc2)c1)NCCC (centres undefined) [[1-(4-Methoxy-3-phenethyloxy-benzyl)-hexyl]-propyl-amine; hydrochloride] | 6.96
CCCC(Cc1ccc(OC)c(OCCc2ccccc2)c1)N(CCC)CCC (centres undefined) [[1-(4-Methoxy-3-phenethyloxy-benzyl)-butyl]-dipropyl-amine] | 6.38
CCCCCCC(Cc1ccc(OC)c(OCCc2ccccc2)c1)NCCC (centres undefined) [[1-(4-Methoxy-3-phenethyloxy-benzyl)-heptyl]-propyl-amine] | 6.64
CCCNC(CC)Cc1ccc(OC)c(OCCc2ccccc2)c1 (centres undefined) [[1-(4-Methoxy-3-phenethyloxy-benzyl)-propyl]-propyl-amine] | 6.48
